Data reported in PubChem BioAssay (NCI).
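Growth conditions: 96-well plates. Treatment: test compound, 48 hours, 5 concentrations. Analysis: linear interpolation between bracketing concentrations; unreached endpoints set to highest concentration. GI50 is the concentration that inhibits growth by half. At the TGI there is no net growth.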

What was measured:
Experiment in all cases: growth of human tumour cells (NCI), 48 h
A498 renal = system: A498 renal
SNB-19 CNS = system: SNB-19 CNS
SW-620 colon = system: SW-620 colon
UACC-257 melanoma = system: UACC-257 melanoma
OVCAR-3 ovarian = system: OVCAR-3 ovarian
DU-145 prostate = system: DU-145 prostate
HS 578T breast = system: HS 578T breast
EKVX NSCLC = system: EKVX NSCLC
SF-539 CNS = system: SF-539 CNS
HL-60(TB) leukemia = system: HL-60(TB) leukemia

Row | SMILES | TGI (A498 renal) | TGI (SNB-19 CNS) | TGI (SW-620 colon) | TGI (UACC-257 melanoma) | TGI (OVCAR-3 ovarian) | TGI (DU-145 prostate) | TGI (HS 578T breast) | TGI (EKVX NSCLC) | TGI (SF-539 CNS) | TGI (HL-60(TB) leukemia) | GI50 (OVCAR-3 ovarian) | GI50 (DU-145 prostate) | GI50 (SF-539 CNS) | GI50 (A498 renal) | GI50 (SNB-19 CNS) | GI50 (HL-60(TB) leukemia) | GI50 (SW-620 colon) | GI50 (UACC-257 melanoma) | GI50 (EKVX NSCLC)
1 | Cc1ccc(/C=C2\NC(=S)N(CN3CCOCC3)C2=O)cc1 | > 100 µM | > 100 µM | > 100 µM | > 100 µM | > 100 µM | > 100 µM | > 100 µM | > 100 µM | – | – | – | – | – | – | – | – | – | – | –
2 | Cc1cccc2sc(NC(=O)c3cc([N+](=O)[O-])ccc3Cl)nc12 | > 100 µM | > 100 µM | 6.35 µM | > 100 µM | 17.4 µM | 17.4 µM | – | > 100 µM | 6.25 µM | > 100 µM | – | – | – | – | – | – | – | – | –
3 | Cn1c(-c2csc(-c3ccc(Cl)cc3)n2)n[nH]c1=S | – | 44.4 µM | > 100 µM | > 100 µM | 34.9 µM | – | 83.7 µM | > 100 µM | 46.7 µM | – | – | – | – | – | – | – | – | – | –
4 | COC(=O)C(NC(=O)CNC(=O)CSc1nnc(COc2ccc(Cl)cc2)n1-c1ccccc1)C(C)C (stereo not given) | 56.7 µM | 50.1 µM | 38.2 µM | 34.6 µM | 31.6 µM | 35.2 µM | 62.9 µM | > 100 µM | 31.9 µM | – | – | – | – | – | – | – | – | – | –
5 | CCCCCCCCCCCCCCCCCCNc1ccn(C2OC(COP(=O)(O)O)C(O)C2O)c(=O)n1 (stereo not given) | > 100 µM | > 100 µM | > 100 µM | > 100 µM | > 100 µM | > 100 µM | > 100 µM | > 100 µM | > 100 µM | – | – | – | – | – | – | – | – | – | –
6 | Cc1cc2c(cc1O)CC[C@@H]1[C@@H]2CC[C@]2(C)[C@@H](O)CC[C@@H]12 | 37.9 µM | 33.1 µM | 37.5 µM | 42.5 µM | 22.1 µM | 36.1 µM | 7.17 µM | – | 19.8 µM | 5.54 µM | 9.14 µM | 16 µM | 7.46 µM | – | – | – | – | – | –
7 | O=[N+]([O-])c1ccc(Cl)cc1C1ON=C(c2ccccc2)N1C12CC3CC(CC(C3)C1)C2 (stereo not given) | > 100 µM | > 100 µM | – | > 100 µM | > 100 µM | > 100 µM | > 100 µM | > 100 µM | > 100 µM | > 100 µM | – | – | – | – | – | – | – | – | –
8 | CN(C)c1ccc(/C=C/c2sc3ccc4ccccc4c3[n+]2C)cc1 | 2.85 µM | > 100 µM | – | – | – | – | – | – | – | 1.18 µM | – | – | – | 0.539 µM | 0.521 µM | 0.33 µM | – | – | –
9 | CN1CCN(CC(=O)Nc2ccc3ncnc(Nc4ccc(Oc5cccc(C(F)(F)F)c5)c(Cl)c4)c3c2)CC1 | 2.66 µM | – | 3.25 µM | 3.79 µM | 2.87 µM | 2.71 µM | – | 2.7 µM | 2.99 µM | – | 1.49 µM | 1.4 µM | 1.6 µM | 1.32 µM | – | – | 1.72 µM | 1.93 µM | 1.32 µM
10 | c1ccc2nc3[nH]c4ccccc4c3cc2c1 | 43.1 µM | 4.43 µM | – | 2.47 µM | – | 13.1 µM | 5.84 µM | 4.8 µM | 1.23 µM | 0.726 µM | – | – | – | – | – | – | – | – | –
11 | O=C1CN(c2ccc(Cl)cc2)C(=O)CN1CCN1CC(=O)N(c2ccc(Cl)cc2)CC1=O | > 100 µM | > 100 µM | > 100 µM | > 100 µM | > 100 µM | > 100 µM | > 100 µM | > 100 µM | – | > 100 µM | – | – | – | – | – | – | – | – | –
